# Source: US20260130395A1, “Water Dispersible Botanical Compositions” (Aquila Black Limited, priority 2021, published 2026)
# Assay: Stability of cannabinoid entourage and Vitamin E components of the powder concentrate by LCMSMS
# Type: physicochemical
# Conditions: powder stored at 21-25° C.
# Procedure: At each time period, 0.05 g of powder was dissolved in 10 ml-15 of ethanol, diluted to fall within the analytical range, and injected into the LCMSMS for analysis.
structure (smiles),measurement,setting,value
Cc1c(C)c2c(c(C)c1OC(=O)CCC(=O)O)CC[C@@](C)(CCC[C@H](C)CCC[C@H](C)CCCC(C)C)O2 [α-Tocopheryl succinate],Stability of Vitamin Es in Powder Concentrate,0 days,1.82 mg/g powder
same,Stability of Vitamin Es in Powder Concentrate,1 days,1.81 mg/g powder
same,Stability of Vitamin Es in Powder Concentrate,2 days,1.81 mg/g powder
same,Stability of Vitamin Es in Powder Concentrate,3 days,1.81 mg/g powder
same,Stability of Vitamin Es in Powder Concentrate,5 days,1.83 mg/g powder
same,Stability of Vitamin Es in Powder Concentrate,8 days,1.90 mg/g powder
same,Stability of Vitamin Es in Powder Concentrate,9 days,1.89 mg/g powder
same,Stability of Vitamin Es in Powder Concentrate,10 days,1.87 mg/g powder
same,Stability of Vitamin Es in Powder Concentrate,11 days,1.89 mg/g powder
same,Stability of Vitamin Es in Powder Concentrate,12 days,1.87 mg/g powder
same,Stability of Vitamin Es in Powder Concentrate,15 days,1.87 mg/g powder
same,Stability of Vitamin Es in Powder Concentrate,16 days,1.83 mg/g powder
same,Stability of Vitamin Es in Powder Concentrate,17 days,1.88 mg/g powder
same,Stability of Vitamin Es in Powder Concentrate,18 days,1.77 mg/g powder
same,Stability of Vitamin Es in Powder Concentrate,19 days,1.85 mg/g powder
same,Stability of Vitamin Es in Powder Concentrate,22 days,1.78 mg/g powder
same,Stability of Vitamin Es in Powder Concentrate,23 days,1.80 mg/g powder
same,Stability of Vitamin Es in Powder Concentrate,24 days,1.90 mg/g powder
same,Stability of Vitamin Es in Powder Concentrate,25 days,1.90 mg/g powder
same,Stability of Vitamin Es in Powder Concentrate,26 days,1.76 mg/g powder
same,Stability of Vitamin Es in Powder Concentrate,29 days,1.87 mg/g powder
same,Stability of Vitamin Es in Powder Concentrate,30 days,1.80 mg/g powder
same,Stability of Vitamin Es in Powder Concentrate,60 days,1.77 mg/g powder
same,Stability of Vitamin Es in Powder Concentrate,90 days,1.83 mg/g powder
same,Stability of Vitamin Es in Powder Concentrate,120 days,1.83 mg/g powder
same,Stability of Vitamin Es in Powder Concentrate,150 days,1.89 mg/g powder
same,Stability of Vitamin Es in Powder Concentrate,180 days,1.77 mg/g powder
same,Stability of Vitamin Es in Powder Concentrate,210 days,1.80 mg/g powder
same,Stability of Vitamin Es in Powder Concentrate,240 days,1.84 mg/g powder
same,Stability of Vitamin Es in Powder Concentrate,270 days,1.87 mg/g powder
same,Stability of Vitamin Es in Powder Concentrate,300 days,1.84 mg/g powder
same,Stability of Vitamin Es in Powder Concentrate,330 days,1.83 mg/g powder
same,Stability of Vitamin Es in Powder Concentrate,360 days,1.79 mg/g powder
same,Stability of Vitamin Es in Powder Concentrate,390 days,1.87 mg/g powder
same,Stability of Vitamin Es in Powder Concentrate,420 days,1.82 mg/g powder
same,Stability of Vitamin Es in Powder Concentrate,450 days,1.80 mg/g powder
same,Stability of Vitamin Es in Powder Concentrate,480 days,1.76 mg/g powder
same,Stability of Vitamin Es in Powder Concentrate,510 days,1.76 mg/g powder
same,Stability of Vitamin Es in Powder Concentrate,540 days,1.80 mg/g powder
same,Stability of Vitamin Es in Powder Concentrate,570 days,1.77 mg/g powder
"CCCc1cc(O)c2c(c1)OC(C)(C)[C@@H]1CCC(C)=C[C@@H]21 [THCV, delta-9-tetrahydrocannabivarin]",Stability of Plant-Derived Cannabinoid Compounds in Powder Concentrate,0 days,0.680 mg/g powder
same,Stability of Plant-Derived Cannabinoid Compounds in Powder Concentrate,1 days,0.685 mg/g powder
same,Stability of Plant-Derived Cannabinoid Compounds in Powder Concentrate,2 days,0.699 mg/g powder
same,Stability of Plant-Derived Cannabinoid Compounds in Powder Concentrate,3 days,0.698 mg/g powder
same,Stability of Plant-Derived Cannabinoid Compounds in Powder Concentrate,5 days,0.676 mg/g powder
same,Stability of Plant-Derived Cannabinoid Compounds in Powder Concentrate,8 days,0.685 mg/g powder
same,Stability of Plant-Derived Cannabinoid Compounds in Powder Concentrate,9 days,0.693 mg/g powder
same,Stability of Plant-Derived Cannabinoid Compounds in Powder Concentrate,10 days,0.706 mg/g powder
same,Stability of Plant-Derived Cannabinoid Compounds in Powder Concentrate,11 days,0.708 mg/g powder
same,Stability of Plant-Derived Cannabinoid Compounds in Powder Concentrate,12 days,0.698 mg/g powder
same,Stability of Plant-Derived Cannabinoid Compounds in Powder Concentrate,15 days,0.684 mg/g powder
same,Stability of Plant-Derived Cannabinoid Compounds in Powder Concentrate,16 days,0.658 mg/g powder
same,Stability of Plant-Derived Cannabinoid Compounds in Powder Concentrate,17 days,0.681 mg/g powder
same,Stability of Plant-Derived Cannabinoid Compounds in Powder Concentrate,18 days,0.690 mg/g powder
same,Stability of Plant-Derived Cannabinoid Compounds in Powder Concentrate,19 days,0.705 mg/g powder
same,Stability of Plant-Derived Cannabinoid Compounds in Powder Concentrate,22 days,0.703 mg/g powder
same,Stability of Plant-Derived Cannabinoid Compounds in Powder Concentrate,23 days,0.687 mg/g powder
same,Stability of Plant-Derived Cannabinoid Compounds in Powder Concentrate,24 days,0.668 mg/g powder
same,Stability of Plant-Derived Cannabinoid Compounds in Powder Concentrate,25 days,0.689 mg/g powder
same,Stability of Plant-Derived Cannabinoid Compounds in Powder Concentrate,26 days,0.686 mg/g powder
same,Stability of Plant-Derived Cannabinoid Compounds in Powder Concentrate,29 days,0.706 mg/g powder
same,Stability of Plant-Derived Cannabinoid Compounds in Powder Concentrate,30 days,0.659 mg/g powder
same,Stability of Plant-Derived Cannabinoid Compounds in Powder Concentrate,60 days,0.702 mg/g powder
same,Stability of Plant-Derived Cannabinoid Compounds in Powder Concentrate,90 days,0.707 mg/g powder
same,Stability of Plant-Derived Cannabinoid Compounds in Powder Concentrate,120 days,0.658 mg/g powder
same,Stability of Plant-Derived Cannabinoid Compounds in Powder Concentrate,150 days,0.695 mg/g powder
same,Stability of Plant-Derived Cannabinoid Compounds in Powder Concentrate,180 days,0.685 mg/g powder
same,Stability of Plant-Derived Cannabinoid Compounds in Powder Concentrate,210 days,0.662 mg/g powder
same,Stability of Plant-Derived Cannabinoid Compounds in Powder Concentrate,240 days,0.700 mg/g powder
same,Stability of Plant-Derived Cannabinoid Compounds in Powder Concentrate,270 days,0.670 mg/g powder
same,Stability of Plant-Derived Cannabinoid Compounds in Powder Concentrate,300 days,0.685 mg/g powder
same,Stability of Plant-Derived Cannabinoid Compounds in Powder Concentrate,330 days,0.691 mg/g powder
same,Stability of Plant-Derived Cannabinoid Compounds in Powder Concentrate,360 days,0.668 mg/g powder
same,Stability of Plant-Derived Cannabinoid Compounds in Powder Concentrate,390 days,0.680 mg/g powder
same,Stability of Plant-Derived Cannabinoid Compounds in Powder Concentrate,420 days,0.671 mg/g powder
same,Stability of Plant-Derived Cannabinoid Compounds in Powder Concentrate,450 days,0.680 mg/g powder
same,Stability of Plant-Derived Cannabinoid Compounds in Powder Concentrate,480 days,0.695 mg/g powder
same,Stability of Plant-Derived Cannabinoid Compounds in Powder Concentrate,510 days,0.696 mg/g powder
same,Stability of Plant-Derived Cannabinoid Compounds in Powder Concentrate,540 days,0.664 mg/g powder
same,Stability of Plant-Derived Cannabinoid Compounds in Powder Concentrate,570 days,0.686 mg/g powder
"CCCCCc1cc(O)c2c(c1)OC(C)(CCC=C(C)C)C=C2 (stereo not drawn) [CBC, cannabichromene]",Stability of Plant-Derived Cannabinoid Compounds in Powder Concentrate,0 days,0.070 mg/g powder
same,Stability of Plant-Derived Cannabinoid Compounds in Powder Concentrate,1 days,0.072 mg/g powder
same,Stability of Plant-Derived Cannabinoid Compounds in Powder Concentrate,2 days,0.071 mg/g powder
same,Stability of Plant-Derived Cannabinoid Compounds in Powder Concentrate,3 days,0.073 mg/g powder
same,Stability of Plant-Derived Cannabinoid Compounds in Powder Concentrate,5 days,0.070 mg/g powder
same,Stability of Plant-Derived Cannabinoid Compounds in Powder Concentrate,8 days,0.071 mg/g powder
same,Stability of Plant-Derived Cannabinoid Compounds in Powder Concentrate,9 days,0.068 mg/g powder
same,Stability of Plant-Derived Cannabinoid Compounds in Powder Concentrate,10 days,0.071 mg/g powder
same,Stability of Plant-Derived Cannabinoid Compounds in Powder Concentrate,11 days,0.071 mg/g powder
same,Stability of Plant-Derived Cannabinoid Compounds in Powder Concentrate,12 days,0.069 mg/g powder
same,Stability of Plant-Derived Cannabinoid Compounds in Powder Concentrate,15 days,0.073 mg/g powder
same,Stability of Plant-Derived Cannabinoid Compounds in Powder Concentrate,16 days,0.073 mg/g powder
same,Stability of Plant-Derived Cannabinoid Compounds in Powder Concentrate,17 days,0.070 mg/g powder
same,Stability of Plant-Derived Cannabinoid Compounds in Powder Concentrate,18 days,0.072 mg/g powder
same,Stability of Plant-Derived Cannabinoid Compounds in Powder Concentrate,19 days,0.070 mg/g powder
same,Stability of Plant-Derived Cannabinoid Compounds in Powder Concentrate,22 days,0.071 mg/g powder
same,Stability of Plant-Derived Cannabinoid Compounds in Powder Concentrate,23 days,0.069 mg/g powder
same,Stability of Plant-Derived Cannabinoid Compounds in Powder Concentrate,24 days,0.068 mg/g powder
same,Stability of Plant-Derived Cannabinoid Compounds in Powder Concentrate,25 days,0.072 mg/g powder
same,Stability of Plant-Derived Cannabinoid Compounds in Powder Concentrate,26 days,0.071 mg/g powder
same,Stability of Plant-Derived Cannabinoid Compounds in Powder Concentrate,29 days,0.069 mg/g powder
same,Stability of Plant-Derived Cannabinoid Compounds in Powder Concentrate,30 days,0.072 mg/g powder
same,Stability of Plant-Derived Cannabinoid Compounds in Powder Concentrate,60 days,0.068 mg/g powder
same,Stability of Plant-Derived Cannabinoid Compounds in Powder Concentrate,90 days,0.068 mg/g powder
same,Stability of Plant-Derived Cannabinoid Compounds in Powder Concentrate,120 days,0.072 mg/g powder
same,Stability of Plant-Derived Cannabinoid Compounds in Powder Concentrate,150 days,0.072 mg/g powder
same,Stability of Plant-Derived Cannabinoid Compounds in Powder Concentrate,180 days,0.071 mg/g powder
same,Stability of Plant-Derived Cannabinoid Compounds in Powder Concentrate,210 days,0.072 mg/g powder
same,Stability of Plant-Derived Cannabinoid Compounds in Powder Concentrate,240 days,0.068 mg/g powder
same,Stability of Plant-Derived Cannabinoid Compounds in Powder Concentrate,270 days,0.072 mg/g powder
same,Stability of Plant-Derived Cannabinoid Compounds in Powder Concentrate,300 days,0.071 mg/g powder
same,Stability of Plant-Derived Cannabinoid Compounds in Powder Concentrate,330 days,0.069 mg/g powder
same,Stability of Plant-Derived Cannabinoid Compounds in Powder Concentrate,360 days,0.068 mg/g powder
same,Stability of Plant-Derived Cannabinoid Compounds in Powder Concentrate,390 days,0.068 mg/g powder
same,Stability of Plant-Derived Cannabinoid Compounds in Powder Concentrate,420 days,0.069 mg/g powder
same,Stability of Plant-Derived Cannabinoid Compounds in Powder Concentrate,450 days,0.073 mg/g powder
same,Stability of Plant-Derived Cannabinoid Compounds in Powder Concentrate,480 days,0.071 mg/g powder
same,Stability of Plant-Derived Cannabinoid Compounds in Powder Concentrate,510 days,0.069 mg/g powder
same,Stability of Plant-Derived Cannabinoid Compounds in Powder Concentrate,540 days,0.070 mg/g powder
same,Stability of Plant-Derived Cannabinoid Compounds in Powder Concentrate,570 days,0.069 mg/g powder
